Data reported in patent US9650390B2, “Water-soluble taxane derivatives and uses thereof” (priority 2014, dated 2017).
Where two headings read alike, the source gives them in different places.

Tests used:
[1] = In vitro dissociation in blood plasma of rabbit; assay type: in vitro ADME, New Zealand white rabbits; settings: fresh New Zealand white rabbit plasma, 37° C.
Protocol: The obtained water soluble taxane derivatives of the following formulae were formulated as 0.2 mg/ml aqueous solutions. […]

[2] = In vivo metabolic test of the water soluble paclitaxel derivatives in rats; settings: SD rats, 5 mg/kg intravenous, 5 min after administration, LC-MS
Protocol: After 5 min of administration, 0.3 ml of venous blood was taken from the retrobulbar venous plexus of the rats, placed in heparinized tubes, and centrifuged at 11.000 rpm for 5 min. Blood plasma was separated, and the concentrations of the compounds in the blood plasma were determined by liquid chromatography-mass spectrometry.

[3] = In vitro dissociation in blood plasma of rat; assay type: in vitro ADME, SD rats; settings: fresh SD rat plasma, 37° C.; for Sampling time/Dissociation percent (%) 2 min: 2 min incubation; for Sampling time/Dissociation percent (%) 5 min: 5 min incubation; for Sampling time/Dissociation percent (%) 10 min: 10 min incubation
Protocol: The obtained water soluble taxane derivatives of the following formulae were formulated as 0.2 mg/ml aqueous solutions. […] After 2 min, 5 min and 10 min of incubation, 0.2 ml of solutions were respectively taken from each of the samples, and added to acetonitrile (0.4 ml) cooled to −20° C. for precipitation of protein.

[4] = SD rats, 5 mg/kg intravenous, 5 min after administration, LC-MS
Protocol: After 5 min of administration, 0.3 ml of venous blood was taken from the retrobulbar venous plexus of the rats, placed in heparinized tubes, and centrifuged at 11,000 rpm for 5 min. Plasma was separated, and the concentrations of the compounds in the plasma were determined by liquid chromatography □-mass spectrometry.

[5] = system: human non-small cell lung cancer NCI-H446; experiment: Inhibitory activity of larotaxel and tesetaxel derivatives on subcutaneously xenografted tumor NCI-H446 in nude mice; settings: D0 IV; for Weight change (%) D5: nude mice; for T/C (%) D20 / Tumor volume (mm^3) (D20) / Tumor inhibitory percent (%) D20 / Tumor volume (mm^3) (D0): NCI-H446 xenograft in nude mice; for Tumor inhibitory percent (%) D20: P = 0.000 vs control; for Tumor volume (mm^3) (D0): baseline at grouping (D0)
Excerpt: Human […] NCI-H446 cells were subcutaneously inoculated into nude mice.

[6] = system: human prostate cancer PC-3; experiment: Inhibitory activity of docetaxel derivatives on subcutaneously xenografted tumor PC-3 in nude mice; assay type: in vivo; settings: 14 mg/kg, D0 IV
Excerpt: Purpose: to evaluate and compare the inhibitory activity of the water soluble docetaxel derivatives and docetaxel on subcutaneously xenografted tumor of human prostate cancer PC-3 in nude mice
Human prostate cancer PC-3 cells were subcutaneously inoculated into nude mice. After the tumor volume reached 100-150 mm^3, the animals were randomly divided into several groups, and administered with the water soluble docetaxel derivatives of the following formula and docetaxel, respectively once on the same day (D0). The tumor volume was measured 2-3 times per week, the animals were weighed and the data were recorded until day 20 (D20) after grouping.
The tumor volume (V) was calculated according to the equation: V=½×a×b^2, wherein a and b represent the length and the width, respectively.
T/C (%)=(T−T0)/(C−C0)×100, wherein T and C represent the tumor volume at the end of the experiment; and T0 and C0 represent the tumor volume at the beginning of the experiment.

[7] = D20, PC-3 xenograft in nude mice

Row | SMILES | Sampling time/Dissociation percent (%) 2 min [1] | Sampling time/Dissociation percent (%) 5 min [1] | Sampling time/Dissociation percent (%) 10 min [1] | Sampling time/Dissociation percent (%) 2 min [3] | Sampling time/Dissociation percent (%) 5 min [3] | Sampling time/Dissociation percent (%) 10 min [3] | mean concentration of docetaxel in the blood plasma [4] | further results
1 | CC(=O)O[C@H]1C(=O)[C@@]2(C)[C@H]([C@H](OC(=O)c3ccccc3)[C@]3(O)C[C@H](OC(=O)[C@H](OC(=O)[C@H](F)CCN(C)C)[C@@H](NC(=O)c4ccccc4)c4ccccc4)C(C)=C1C3(C)C)[C@]1(OC(C)=O)CO[C@@H]1C[C@@H]2O.Cl [Compound 01, 2′-O-[4-N,N-dimethylamino-2(R)-fluorobutyryl]paclitaxel hydrochloride] | 76.5% | 98.3% | 100% | 63.5% | 96.8% | 100% | – | detection of the administered compound in the blood plasma [2]: cannot be detected
2 | CC(=O)O[C@H]1C(=O)[C@@]2(C)[C@H]([C@H](OC(=O)c3ccccc3)[C@]3(O)C[C@H](OC(=O)[C@H](OC(=O)[C@@H](F)CCN(C)C)[C@@H](NC(=O)c4ccccc4)c4ccccc4)C(C)=C1C3(C)C)[C@]1(OC(C)=O)CO[C@@H]1C[C@@H]2O.Cl [Compound 02, 2′-O-[4-N,N-dimethylamino-2(S)-fluorobutyryl]paclitaxel hydrochloride] | 68.2% | 97.5% | 100% | 59.8% | 95.6% | 100% | – | detection of the administered compound in the blood plasma [2]: cannot be detected; mean concentration of paclitaxel in the blood plasma [2]: 1637 ng/mL
3 | CC(=O)O[C@H]1C(=O)[C@@]2(C)[C@H]([C@H](OC(=O)c3ccccc3)[C@]3(O)C[C@H](OC(=O)[C@H](OC(=O)C(F)CCN(C)C)[C@@H](NC(=O)c4ccccc4)c4ccccc4)C(C)=C1C3(C)C)[C@]1(OC(C)=O)CO[C@@H]1C[C@@H]2O.Cl (stereo partly drawn) [Compound 03, 2′-O-[4-N,N-dimethylamino-2(R,S)-fluorobutyryl]paclitaxel hydrochloride] | 75.7% | 93.5% | 100% | 61.8% | 93.1% | 100% | – | detection of the administered compound in the blood plasma [2]: cannot be detected; mean concentration of paclitaxel in the blood plasma [2]: 1825 ng/mL
4 | CC(=O)OC12COC1CC(O)C1(C)C(=O)C(O)C3=C(C)C(OC(=O)C(OC(=O)C(F)CCN(C)C)C(NC(=O)OC(C)(C)C)c4ccccc4)CC(O)(C(OC(=O)c4ccccc4)C21)C3(C)C.Cl [Compound 04, 2′-O-[4-N,N-dimethylamino-2(R)-fluorobutyryl]docetaxel hydrochloride] | 80.2% | 93.5% | 100% | 58.6% | 92.6% | 100% | 1506 ng/mL | detection of the administered compound in the blood plasma [4]: cannot be detected
5 | CC(=O)O[C@@]12CO[C@@H]1C[C@H](O)[C@@]1(C)C(=O)[C@H](O)C3=C(C)[C@@H](OC(=O)[C@H](OC(=O)[C@@H](F)CCN(C)C)[C@@H](NC(=O)OC(C)(C)C)c4ccccc4)C[C@@](O)([C@@H](OC(=O)c4ccccc4)[C@H]21)C3(C)C.Cl [Compound 05, 2′-O-[4-N,N-dimethylamino-2(S)-fluorobutyryl]docetaxel hydrochloride] | 79.3% | 91.8% | 100% | 56.4% | 91.1% | 100% | 1387 ng/mL | detection of the administered compound in the blood plasma [4]: cannot be detected
6 | CC(=O)O[C@@]12CO[C@@H]1C[C@H](O)[C@@]1(C)C(=O)[C@H](O)C3=C(C)[C@@H](OC(=O)[C@H](OC(=O)C(F)CCN(C)C)[C@@H](NC(=O)OC(C)(C)C)c4ccccc4)C[C@@](O)([C@@H](OC(=O)c4ccccc4)[C@H]21)C3(C)C.Cl (stereo partly drawn) [Compound 06, 2′-O-[4-N,N-dimethylamino-2(R,S)-fluorobutyryl]docetaxel hydrochloride] | 75.6% | 98.6% | 100% | 56.4% | 91.1% | 100% | 1621 ng/mL | detection of the administered compound in the blood plasma [4]: cannot be detected
7 | CCN(C)CCC(F)C(=O)OC(C(=O)OC1CC2(O)C(OC(=O)c3ccccc3)C3C4(OC(C)=O)COC4CC4CC43C(=O)C(OC(C)=O)C(=C1C)C2(C)C)C(NC(=O)OC(C)(C)C)c1ccccc1.Cl [Compound C40, 2′-O-[4-N-methyl-N-ethylamino-2(R,S)-fluorobutyryl]larotaxel hydrochloride] | – | – | – | – | – | – | – | Weight change (%) D5 ([5]; 12 mg/kg): −9.1%; T/C (%) D20 ([5]; 12 mg/kg): −51%; Tumor volume (mm^3) (D20) ([5]; 12 mg/kg): 43.2 ± 12.7 mm^3; Tumor inhibitory percent (%) D20 ([5]; 12 mg/kg): 122%; Tumor volume (mm^3) (D0) ([5]; 12 mg/kg): 112.4 ± 1.8 mm^3
8 | CC(=O)O[C@@]12CO[C@@H]1CC[C@@]1(C)[C@@H]3O[C@H](CN(C)C)O[C@@H]3C3=C(C)[C@@H](OC(=O)[C@H](OC(=O)[C@H](F)CCN(C)C)[C@@H](NC(=O)OC(C)(C)C)c4ncccc4F)C[C@@](O)([C@@H](OC(=O)c4ccccc4)[C@@H]12)C3(C)C.Cl [Compound C43, 2′-O-[4-N,N-dimethylamino-2(R)-fluorobutyryl]tesetaxel hydrochloride] | – | – | – | – | – | – | – | T/C (%) D20 ([5]; 12 mg/kg): −61%; Tumor volume (mm^3) (D20) ([5]; 12 mg/kg): 31.8 ± 11.1 mm^3; Tumor inhibitory percent (%) D20 ([5]; 12 mg/kg): 153%; Tumor volume (mm^3) (D0) ([5]; 12 mg/kg): 111.5 ± 2.2 mm^3
9 | CCN(CC)CCC(F)C(=O)OC(C(=O)OC1CC2(O)C(OC(=O)c3ccccc3)C3C(C)(CCC4OCC43OC(C)=O)C3OC(CN(C)C)OC3C(=C1C)C2(C)C)C(NC(=O)OC(C)(C)C)c1ncccc1F.Cl [Compound C44, 2′-O-[4-N,N-diethylamino-2(S)-fluorobutyryl]tesetaxel hydrochloride] | – | – | – | – | – | – | – | T/C (%) D20 ([5]; 12 mg/kg): −49%; Tumor volume (mm^3) (D20) ([5]; 12 mg/kg): 41.3 ± 10.9 mm^3; Tumor inhibitory percent (%) D20 ([5]; 12 mg/kg): 123%; Tumor volume (mm^3) (D0) ([5]; 12 mg/kg): 113.6 ± 2.8 mm^3
10 | CC(=O)O[C@@]12CO[C@@H]1C[C@H](O)[C@@]1(C)C(=O)[C@H](O)C3=C(C)[C@@H](OC(=O)[C@H](O)[C@@H](NC(=O)OC(C)(C)C)c4ccccc4)C[C@@](O)([C@@H](OC(=O)c4ccccc4)[C@H]21)C3(C)C [docetaxel, reference compound] | – | – | – | – | – | – | 769 ng/mL | Weight change (%) D6 ([6]; D6, nude mice): −12.3%; T/C (%) D20 [6, 7]: −27%; Tumor volume (mm^3) (D20) [6, 7]: 81.4 ± 25.1 mm^3; Tumor inhibitory percent (%) D20 ([6]; D20, PC-3 xenograft in nude mice, P = 0.000 vs control): 127%; Tumor volume (mm^3) (D0) ([6]; baseline at grouping (D0), PC-3 xenograft in nude mice): 111.5 ± 1.3 mm^3
11 | CC(=O)O[C@H]1C(=O)[C@]23C[C@H]2C[C@H]2OC[C@@]2(OC(C)=O)[C@H]3[C@H](OC(=O)c2ccccc2)[C@]2(O)C[C@H](OC(=O)[C@H](O)[C@@H](NC(=O)OC(C)(C)C)c3ccccc3)C(C)=C1C2(C)C [larotaxel, reference compound] | – | – | – | – | – | – | – | Weight change (%) D5 ([5]; 7 mg/kg): −8.4%; T/C (%) D20 ([5]; 7 mg/kg): −64%; Tumor volume (mm^3) (D20) ([5]; 7 mg/kg): 33.3 ± 12.4 mm^3; Tumor inhibitory percent (%) D20 ([5]; 7 mg/kg): 153%; Tumor volume (mm^3) (D0) ([5]; 7 mg/kg): 110.9 ± 2.4 mm^3
12 | CC(=O)O[C@@]12CO[C@@H]1CC[C@@]1(C)[C@@H]3O[C@H](CN(C)C)O[C@@H]3C3=C(C)[C@@H](OC(=O)[C@H](O)[C@@H](NC(=O)OC(C)(C)C)c4ncccc4F)C[C@@](O)([C@@H](OC(=O)c4ccccc4)[C@@H]12)C3(C)C [tesetaxel, reference compound] | – | – | – | – | – | – | – | T/C (%) D20 ([5]; 8 mg/kg): −58%; Tumor volume (mm^3) (D20) ([5]; 8 mg/kg): 33.7 ± 12.1 mm^3; Tumor inhibitory percent (%) D20 ([5]; 8 mg/kg): 146%; Tumor volume (mm^3) (D0) ([5]; 8 mg/kg): 112.8 ± 2.2 mm^3
